# Results taken from publication PMC10525516, “Novel NADPH Oxidase-2 Inhibitors as Potential Anti-Inflammatory and Neuroprotective Agents” (Antioxidants, 2023).
# Key:
# Nox2 [1] = target: T1, Nox2 (Homo sapiens, UniProt P04839); assay: Plate reader hydroethidine (HE + DNA) assay of O2•− production by PMA-activated dHL60 cells; type: cell-based
# T1 construct: endogenous in cells
# T1 sequence (P04839 2-570 limits assumed): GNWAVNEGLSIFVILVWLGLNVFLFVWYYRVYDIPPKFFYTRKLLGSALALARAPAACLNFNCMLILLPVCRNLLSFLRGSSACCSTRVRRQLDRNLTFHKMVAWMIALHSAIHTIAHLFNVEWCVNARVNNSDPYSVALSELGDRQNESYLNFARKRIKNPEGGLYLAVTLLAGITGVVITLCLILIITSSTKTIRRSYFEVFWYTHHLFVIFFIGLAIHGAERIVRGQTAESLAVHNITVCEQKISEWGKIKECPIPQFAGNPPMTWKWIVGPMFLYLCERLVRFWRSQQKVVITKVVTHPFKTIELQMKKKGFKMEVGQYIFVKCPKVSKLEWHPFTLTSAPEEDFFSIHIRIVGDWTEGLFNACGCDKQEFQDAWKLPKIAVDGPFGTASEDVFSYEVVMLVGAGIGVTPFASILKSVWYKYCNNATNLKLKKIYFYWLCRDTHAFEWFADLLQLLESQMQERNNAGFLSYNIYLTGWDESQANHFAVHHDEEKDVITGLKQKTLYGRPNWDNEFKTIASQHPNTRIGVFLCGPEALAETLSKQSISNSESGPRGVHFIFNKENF
# T1 sequence (P13498 2-195 partner limits assumed): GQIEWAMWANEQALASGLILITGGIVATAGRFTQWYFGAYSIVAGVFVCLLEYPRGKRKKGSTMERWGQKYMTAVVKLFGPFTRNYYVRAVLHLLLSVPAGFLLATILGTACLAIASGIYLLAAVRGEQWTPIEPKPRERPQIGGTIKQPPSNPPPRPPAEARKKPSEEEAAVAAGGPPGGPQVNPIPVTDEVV
# Method: Human promyelocytic leukemia HL60 cells (Sigma-Aldrich) were grown in RPMI 1640 medium (Gibco, 11875-093, Billings, MT, USA) supplemented with 10% FBS (Omega Scientific (Tarzana, CA, USA)), 100 units/mL penicillin, and 100 µg/mL streptomycin, and were incubated at 37 °C and 5% carbon dioxide (CO2). For differentiation to neutrophil-like cells, HL60 cells were pelleted and resuspended in fresh media containing 1 µM of all trans-retinoic acid and incubated for four to five days. Nox2 activation was achieved by treating differentiated HL60 (dHL60) cells with 1 µM PMA [24]. […]
# Plate reader-based analyses of the production of O2^•− and H2O2 by PMA-activated dHL60 cells were performed according to a published protocol with minor modifications. […] Once probes + PMA were added, plates were sealed with sealing film and immediately placed in the pre-warmed plate readers (37 °C). Fluorescence intensities were monitored kinetically from the bottom of the plates every 1.3 min for a period of 2 h using Beckman Coulter (Brea, CA, USA) DTX880 and BMG Labtech (Ortenberg, Germany) FLUOstar Omega plate readers. […] The IC50 values were determined using at least five independent measurements, each consisting of technical quadruplicates per concentration.
# Nox2 [2] = target: T1, Nox2; assay: Rapid HPLC analysis of HE oxidation (2-OH-E+) for O2•− production by activated dHL60 cells; type: cell-based; conditions: 1 h incubation after PMA, Figure 5D,E
# Method: For high-performance liquid chromatography (HPLC)-based analyses of superoxide production by activated dHL60 cells, the cells (0.8 mL, 2 × 10^5 cells/mL) were pretreated with inhibitors for 30 min, as described above, followed by the addition of 200 µL of the mixture of PMA (5 µM) and HE (50 µM); then, they were incubated for 1 h at 37 °C in the dark. Next, 0.5 mL aliquots of the cell suspensions were transferred into 1.5 mL microcentrifuge tubes prefilled with 10 µL of a mixture of 3,8-diamino-6-phenylphenanthridine (50 µM, used as an internal standard), superoxide dismutase, and catalase (5 mg/mL and 5 kU/mL, respectively, used to stop probe oxidation), and the tubes were centrifugated (5 min, 3000× g) to pellet the cells. Clear supernatants (0.2 mL) were transferred into HPLC vials and analyzed for HE, 2-hydroxyethidium (2–OH–E^+), ethidium (E^+), and diethidium (E^+–E^+) content, as described previously. Briefly, an Agilent 1100 HPLC system equipped with an Ascentis Express Phenyl-Hexyl column (50 mm × 4.6 mm, 2.7 µm, Supelco, Bellefonte, PA, USA) and absorption and fluorescence detectors was used. […] Samples (25 µL) were injected, and the products were detected by monitoring absorbance (290 and 370 nm) and fluorescence (exc. 370 nm, emi. 565 nm) signals.
smiles,measurement,setting,value
CN(C)CCCn1c(SCCc2c[nH]c3ccccc23)nc2ccc(F)cc2c1=O [TG15-132],IC50,"Nox2 [1]; HE probe + DNA, plate reader, PMA-activated dHL60 cells, Figure 5C, read-out: IC50, inhibition of O2•− production",5 µM
same,PMA-stimulated increase in HE fluorescence intensity,"Nox2 [1]; cell pretreatment, Figure 5B,C",dose-dependently inhibited
same,HE consumption and 2-OH-E+ formation (HPLC),Nox2 [2],inhibited by cell pretreatment with TG15-132 in a dose-dependent manner
